Key:
[1] = biological target: IL-17A(FLAG-Tagged): IL-17RA(His-Tagged) (Homo sapiens, UniProt Q16552, K93Q); assay: IL-17A(FLAG-Tagged): IL-17RA(His-Tagged) Binding Disruption Eu-HTRF Assay; details: IL-17A/IL-17RA binding disruption, simple average if tested more than once
How it was run: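 IC50 comes from a one-site competition fit of the HTRF 665/620 nm ratio. Compound dilutions (2-fold, 22 points) were held 1 h rt with FLAG-tagged IL-17A dimer, then His-tagged IL-17RA plus Eu-cryptate anti-FLAG and D2 anti-His antibodies were added for 2 h rt.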

[2] = tested on: IL-17A-induced G-CSF production in human normal keratinocyte (NHK); assay: NHK Assay: IL-17A-induced G-CSF production in human normal keratinocytes; type: cell-based; details: adult normal human keratinocytes, IL-17A 5 ng/mL, 24 h, simple average if tested more than once
How it was run: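 HTRF read-out of supernatant G-CSF, quantified from a standard curve, gave IC50 values. Adult keratinocytes, 3000-4000 cells/well, received human IL-17A (5 ng/mL final) pre-mixed 1 h at rt with compound, in 5% FBS and 0.2% DMSO, 24 h at 37° C.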

Chain of UniProt Q16552 (Q16552 with tags, fused parts or gaps K93Q): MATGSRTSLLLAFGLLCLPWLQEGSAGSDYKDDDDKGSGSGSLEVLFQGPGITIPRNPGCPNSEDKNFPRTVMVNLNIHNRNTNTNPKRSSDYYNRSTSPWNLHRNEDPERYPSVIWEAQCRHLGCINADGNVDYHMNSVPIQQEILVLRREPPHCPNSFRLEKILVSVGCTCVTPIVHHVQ

| Compound | IC50 [1] | IC50 [2] | IC50 ([2]; Homo sapiens, Keratinocyte) |
| --- | --- | --- | --- |
| CCOCC(NC(=O)CC1CC(F)(F)C1)c1cnn2cc([C@@H](NC(=O)c3nonc3C3CC3)C3CCC(F)(F)CC3)nc2c1 (single isomer, unassigned) [Example 527, 4-Cyclopropyl-N—((S)-(7-((R*)-1-(2-(3,3-difluorocyclobutyl)acetamido)-2-ethoxyethyl)imidazo[1,2-b]pyridazin-2-yl)(4,4-difluorocyclohexyl)methyl)-1,2,5-oxadiazole-3-carboxamide] | 57 nM | 110 nM |  |
| N#CC12CC(Cn3cc(C(=O)N[C@H](c4cn5ncc([C@H](NC(=O)CCC(F)(F)F)C6CC6)cc5n4)C4CCC(F)(F)CC4)nn3)(C1)C2 [Example 147, 1-((3-Cyanobicyclo[1.1.1]pentan-1-yl)methyl)-N—((S)-(7-((R)-cyclopropyl(4,4,4-trifluorobutanamido)methyl)imidazo[1,2-b]pyridazin-2-yl)(4,4-difluorocyclohexyl)methyl)-1H-1,2,3-triazole-4-carboxamide] | 1700 nM |  | > 20000 nM |
| [2H]C([2H])([2H])n1nccc1C(=O)N[C@H](c1cn2ncc([C@H](NC(=O)CCC(F)F)C3CC3)cc2n1)C1CCC(F)(F)CC1 [Example 283, N—((S)-(7-((R)-Cyclopropyl(4,4-difluorobutanamido)methyl)imidazo[1,2-b]pyridazin-2-yl)(4,4-difluorocyclohexyl)methyl)-1-(methyl-d3)-1H-pyrazole-5-carboxamide] | 310 nM |  | 690 nM |
| COCC(NC(=O)CC1CC(F)(F)C1)c1cnn2cc([C@H](COC(C)(C)C(F)(F)F)NC(=O)c3nonc3C3CC3)nc2c1 (single isomer, unassigned) [Example 538, 4-Cyclopropyl-N—((R)-1-(7-((S*)-1-(2-(3,3-difluorocyclobutyl)acetamido)-2-methoxyethyl)imidazo[1,2-b]pyridazin-2-yl)-2-((1,1,1-trifluoro-2-methylpropan-2-yl)oxy)ethyl)-1,2,5-oxadiazole-3-carboxamide] | 24 nM |  | 80 nM |
| O=C(CCC(F)(F)F)NC(c1cnn2cc([C@@H](NC(=O)c3cnn(CCC(F)(F)F)n3)C3CCC(F)(F)CC3)nc2c1)C1CC1 (single isomer, unassigned) [Example 18, N—((S)-(7-((R*)-Cyclopropyl(4,4,4-trifluorobutanamido)methyl)imidazo[1,2-b]pyridazin-2-yl)(4,4-difluorocyclohexyl)methyl)-2-(3,3,3-trifluoropropyl)-2H-1,2,3-triazole-4-carboxamide] | 190 nM | 420 nM |  |
| CC(C)(OC[C@H](NC(=O)c1nonc1C1CC1)c1cn2ncc([C@H](NC(=O)CC3CC(F)(F)C3)C3CCOCC3)cc2n1)C(F)(F)F [Example 540, 4-Cyclopropyl-N—((R)-1-(7-((R)-(2-(3,3-difluorocyclobutyl)acetamido)(tetrahydro-2H-pyran-4-yl)methyl)imidazo[1,2-b]pyridazin-2-yl)-2-((1,1,1-trifluoro-2-methylpropan-2-yl)oxy)ethyl)-1,2,5-oxadiazole-3-carboxamide] | 14 nM |  | 9.6 nM |
| Cc1nonc1C(=O)N[C@H](c1cn2ncc([C@H](NC(=O)[C@@H]3CC[C@@H]3F)C3CC3)cc2n1)C1CCC(F)(F)CC1 (relative stereo) [Example 337, N—((S)-(7-((R)-Cyclopropyl((1S*,2S*)-2-fluorocyclobutane-1-carboxamido)methyl)imidazo[1,2-b]pyridazin-2-yl)(4,4-difluorocyclohexyl)methyl)-4-methyl-1,2,5-oxadiazole-3-carboxamide] | 3500 nM |  | > 20000 nM |
| O=C(CCC(F)(F)F)N[C@@H](c1cnn2cc([C@@H](NC(=O)c3cnn(CC4CCC4(F)F)n3)C3CCC(F)(F)CC3)nc2c1)C1CC1 (stereo partly drawn) [Example 4] | 100 nM |  | 370 nM |
| CC(C)n1nccc1C(=O)N[C@H](c1cn2ncc(C(CC3CCC3)NC(=O)CC3CC(F)(F)C3)cc2n1)C1CCC(F)(F)CC1 (single isomer, unassigned) [Example 440, N—((S)-(7-((R*)-2-Cyclobutyl-1-(2-(3,3-difluorocyclobutyl)acetamido)ethyl)imidazo[1,2-b]pyridazin-2-yl)(4,4-difluorocyclohexyl)methyl)-1-isopropyl-1H-pyrazole-5-carboxamide] | 92 nM | 59 nM |  |

More lines, main results first:

| IC50 [1] | Compound | IC50 [2] | IC50 ([2]; Homo sapiens, Keratinocyte) |
| --- | --- | --- | --- |
| 50 nM | O=C(CCC(F)(F)F)N[C@@H](c1cnn2cc([C@@H](NC(=O)c3conc3C3CC3)C3CCC(F)(F)CC3)nc2c1)C1CC1 [Example 75, 3-Cyclopropyl-N—((S)-(7-((R)-cyclopropyl(4,4,4-trifluorobutanamido)methyl)imidazo[1,2-b]pyridazin-2-yl)(4,4-difluorocyclohexyl)methyl)isoxazole-4-carboxamide] |  | 92 nM |
| 110 nM | O=C(CCC(F)(F)F)N[C@@H](c1cnn2cc([C@@H](NC(=O)c3ncnn3CC3CC3)C3CCC(F)(F)CC3)nc2c1)C1CC1 [Example 39, N—((S)-(7-((R)-Cyclopropyl(4,4,4-trifluorobutanamido)methyl)imidazo[1,2-b]pyridazin-2-yl)(4,4-difluorocyclohexyl)methyl)-1-(cyclopropylmethyl)-1H-1,2,4-triazole-5-carboxamide] |  | 430 nM |
| 730 nM | Cc1nonc1C(=O)N[C@H](c1cn2ncc([C@H](NC(=O)[C@@H](F)[C@@H](C)C(F)(F)F)C3CC3)cc2n1)C1CCC(F)(F)CC1 (relative stereo) [Example 354, N—((S)-(7-((R)-Cyclopropyl((2S*,3R*)-2,4,4,4-tetrafluoro-3-methylbutanamido)methyl)imidazo[1,2-b]pyridazin-2-yl)(4,4-difluorocyclohexyl)methyl)-4-methyl-1,2,5-oxadiazole-3-carboxamide] |  | 2700 nM |
| 2700 nM | O=C(CCC(F)(F)F)N[C@@H](c1cnn2cc([C@@H](NC(=O)[C@@H]3C[C@H]3C(F)F)C3CCC(F)(F)CC3)nc2c1)C1CC1 (single isomer, unassigned) [Example 360] |  | > 20000 nM |
| 110 nM | CC(C)n1nccc1C(=O)N[C@H](c1cn2ncc(C(NC(=O)CCC(F)F)C3CC3)cc2n1)C1CCC(F)(F)CC1 (single isomer, unassigned) [Example 135, N-((1S)-(7-((R*)-Cyclopropyl(4,4-difluorobutanamido)methyl)imidazo[1,2-b]pyridazin-2-yl)(4,4-difluorocyclohexyl)methyl)-1-isopropyl-1H-pyrazole-5-carboxamide] |  | 230 nM |
| 55 nM | CC(C)c1conc1C(=O)N[C@H](c1cn2ncc([C@H](NC(=O)CCC(F)(F)F)C3CC3)cc2n1)C1CCC(F)(F)CC1 [Example 378, N—((S)-(7-((R)-Cyclopropyl(4,4,4-trifluorobutanamido)methyl)imidazo[1,2-b]pyridazin-2-yl)(4,4-difluorocyclohexyl)methyl)-4-isopropylisoxazole-3-carboxamide] |  | 95 nM |
| 230 nM | O=C(CCC(F)(F)F)NC(c1cnn2cc([C@@H](NC(=O)c3ccn(CCC(F)(F)F)n3)C3CCC(F)(F)CC3)nc2c1)C1CC1 (single isomer, unassigned) [Example 21, N—((S)-(7-((R*)-Cyclopropyl(4,4,4-trifluorobutanamido)methyl)imidazo[1,2-b]pyridazin-2-yl)(4,4-difluorocyclohexyl)methyl)-1-(3,3,3-trifluoropropyl)-1H-pyrazole-3-carboxamide] |  | 720 nM |
| 180 nM | Cc1nocc1C(=O)N[C@H](c1cn2ncc(C(NC(=O)CCC(F)(F)F)C(C)C)cc2n1)C1CCC(F)(F)CC1 (mixture of isomers) [Example 134, N—((S)-(4,4-Difluorocyclohexyl)(7-(2-methyl-1-(4,4,4-trifluorobutanamido)propyl)imidazo[1,2-b]pyridazin-2-yl)methyl)-3-methylisoxazole-4-carboxamide] |  | 110 nM |
| 120 nM | COc1conc1C(=O)N[C@H](c1cn2ncc([C@H](NC(=O)CCC(F)(F)F)C3CC3)cc2n1)C1CCC(F)(F)CC1 [Example 372, N—((S)-(7-((R)-Cyclopropyl(4,4,4-trifluorobutanamido)methyl)imidazo[1,2-b]pyridazin-2-yl)(4,4-difluorocyclohexyl)methyl)-4-methoxyisoxazole-3-carboxamide] |  | 740 nM |
| 60 nM | O=C(CCC(F)(F)F)N[C@@H](c1cnn2cc([C@@H](NC(=O)c3cccc(F)c3)C3CCC(F)(F)CC3)nc2c1)C1CC1 [Example 173, N—((S)-(7-((R)-Cyclopropyl(4,4,4-trifluorobutanamido)methyl)imidazo[1,2-b]pyridazin-2-yl)(4,4-difluorocyclohexyl)methyl)-3-fluorobenzamide] |  | 340 nM |
| 150 nM | CCc1ccnc(C(=O)N[C@H](c2cn3ncc([C@H](NC(=O)CCC(F)(F)F)C4CC4)cc3n2)C2CCC(F)(F)CC2)c1 [Example 453, N—((S)-(7-((R)-Cyclopropyl(4,4,4-trifluorobutanamido)methyl)imidazo[1,2-b]pyridazin-2-yl)(4,4-difluorocyclohexyl)methyl)-4-ethylpicolinamide] |  | 3900 nM |
| 33 nM | CC(C)c1snnc1C(=O)N[C@H](c1cn2ncc([C@H](NC(=O)CCC(F)(F)F)C3CC3)cc2n1)C1CCC(F)(F)CC1 [Example 87, N—((S)-(7-((R)-Cyclopropyl(4,4,4-trifluorobutanamido)methyl)imidazo[1,2-b]pyridazin-2-yl)(4,4-difluorocyclohexyl)methyl)-5-isopropyl-1,2,3-thiadiazole-4-carboxamide] |  | 95 nM |
